Several values for one entry are separate records, joined by “and”; a condition that tells them apart may be missing. Equal entries are not always repeated.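 These data come from cells grown in 96-well plates and exposed to compound for 48 hours at five concentrations. Abbreviation: GI50, concentration required for 50% inhibition of growth. Definition used: TGI = concentration required for complete inhibition of growth.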

Common to all, as to experiment: inhibition of tumour cell growth, NCI panel, 48 h
In experiment [1] the test system is A498 renal.
The test system of experiment [2] is OVCAR-8 ovarian.
Experiment [3] has as its system NCI-H23 lung.
Experiment [4] deals with HL-60(TB) leukemia.
Experiment [5] relates to UACC-62 melanoma.
In experiment [6] the test system is SNB-19 CNS.
For experiment [7], the system named is HCC-2998 colon.
Experiment [8] deals with A549 NSCLC.
Experiment [9] relates to SW-620 colon.

Turning to `CN(C)C(=S)/N=c1\ssc(=S)n1C`, the TGI in experiment [1], in experiment [2], in experiment [3], in experiment [4], in experiment [5] and in experiment [6] was above 100 µM in each case. The TGI in experiment [7], in experiment [8] and in [9] was above 100 µM in each case.
With `COC(=O)C(=O)C(CC(=O)Nc1ccc(C)cc1)C(=O)OC` (stereo not drawn), the TGI in experiment [2], in experiment [3], in experiment [4], in experiment [5], in [6] and in experiment [7] was above 100 µM each time. Also, the TGI in experiment [8] and in experiment [9] was above 100 µM throughout.
Consider `COC(=O)c1cc(=O)nc2cc3cccccc3n12`, for which the TGI in experiment [1], in experiment [2], in [3], in [4], in experiment [5] and in experiment [6] was above 100 µM each time. The TGI in experiment [7], in experiment [8] and in experiment [9] was above 100 µM in each case.
Regarding `C1=Cc2nc1c(-c1ccccc1)c1ccc([nH]1)c(-c1ccccc1)c1nc(c(-c3ccccc3)c3ccc([nH]3)c2-c2ccccc2)C=C1`, the TGI in experiment [1], in experiment [2], in experiment [3], in [4], in experiment [5] and in experiment [6] was above 100 µM in each case. Moreover, the TGI in experiment [7], in [8] and in experiment [9] was above 100 µM throughout.
Turning to `COc1ccccc1-c1cc(=O)c2cc(C)c(C)c(C(=O)O)c2o1`, the TGI in [1], in experiment [2], in [3], in experiment [4], in experiment [5] and in experiment [6] was above 100 µM in each case. Also, the TGI in [7], in experiment [8] and in experiment [9] was above 100 µM each time.
On to `O=C1c2ccccc2C(=O)C12CCc1ccccc12`, for which the TGI in experiment [2], in experiment [3], in experiment [4], in experiment [5], in experiment [7] and in [8] was above 100 µM throughout. In experiment [9], this molecule displayed a TGI above 100 µM.
With `COc1cc(C(=O)N[C@H]2CCc3cc(OC)c(OC)c(OC)c3-c3ccc(SC)c(=O)cc32)cc(OC)c1OC`, the TGI in experiment [2] was 0.0478 µM; in [4], 0.578 µM; in experiment [5] it was 25 µM and > 100 µM; in experiment [6] it was above 100 µM; in [7] it was 0.159 µM; in [8] it was 25 µM and > 100 µM. For the same molecule, the TGI in experiment [9] was 25 µM and > 100 µM. Moreover, the GI50 in [8] was 17 nM.
As to `CCOc1ccc(N=C(NC(=O)c2ccccc2)SC)cc1`, the TGI in [1], in [2], in [3], in [4], in [5] and in [6] was above 100 µM in each case. Besides, the TGI in experiment [7], in [8] and in experiment [9] was above 100 µM each time.
Consider `CC1(C)OC(=S)N(c2ccccc2)C12C=Cc1cc3ccccc3nc1S2` (stereo not drawn), for which the TGI in experiment [2], in experiment [3], in experiment [4], in [5], in [6] and in experiment [7] was above 100 µM in each case. Further, the TGI in [8] and in [9] was above 100 µM each time.
For `O=C1CCC2(c3ccccc3)Nc3ccccc3N12` (stereo not drawn), the TGI in experiment [1], in experiment [2], in [3], in experiment [4], in experiment [5] and in [7] was above 100 µM in each case. Besides, the TGI in experiment [8] and in [9] was above 100 µM throughout.
For `O=c1c2c(-c3ccccc3)c3ccccc3nc2cnn1-c1ccccc1`, the TGI in experiment [1], in experiment [2], in experiment [3], in experiment [4], in experiment [5] and in [6] was above 100 µM in each case. Also, the TGI in experiment [7], in experiment [8] and in [9] was above 100 µM in each case.
Turning to `CCC1=CCN(c2cc(C)ccn2)OC1c1ccccc1` (stereo not drawn), the TGI was above 100 µM in experiment [2]; above 100 µM in [3]; 41.8 µM in [4]; above 100 µM in [5]; above 100 µM in [6]; 81.7 µM in experiment [7]. Besides, the TGI in experiment [8] and in experiment [9] was above 100 µM throughout.
`CC(=O)OC(C(=O)[O][Sn]([CH3])([CH3])[CH3])c1ccccc1` (stereo not drawn): the GI50 in [1], in experiment [2], in experiment [3], in [4], in experiment [5] and in experiment [6] was above 100 µM throughout. Also, the results for the GI50 in [7], in experiment [8] and in [9] were above 100 µM, above 100000 nM and above 100 µM, respectively. Further, the TGI in experiment [1], in experiment [2], in [3], in [4], in [5] and in [6] was above 100 µM throughout. Moreover, the TGI in [7], in experiment [8] and in experiment [9] was above 100 µM each time.
On to `COC(=O)C(C(=O)C(=O)Nc1ccc(C)cc1C)c1csc(-n2nc(-c3ccccc3)cc2-c2ccccc2)n1` (stereo not drawn), for which the TGI in experiment [1], in experiment [2], in [3], in [4], in experiment [5] and in experiment [6] was above 100 µM in each case. For the same molecule, the TGI in experiment [7], in [8] and in experiment [9] was above 100 µM in each case.

Source of the values: PubChem BioAssay (NCI).
